Assays:
[1] = system: HIV strain F (clinically isolated, protease mutations); assay type: cell-based; details: FR=EC50(mutant strain F)/EC50(HIV-1 strain LAI)
Description: (§1) HIV- or mock-infected MT4 cells were incubated for five days in the presence of various concentrations of the inhibitor. […] Cell viability is measured by measuring the concentration of MTT, a yellow, water soluble tetrazolium dye that is converted to a purple, water insoluble formazan in the mitochondria of living cells only. Upon solubilization of the resulting formazan crystals with isopropanol, the absorbance of the solution is monitored at 540 nm. The values correlate directly to the number of living cells remaining in the culture at the completion of the five day incubation. The inhibitory activity of the compound was monitored on the virus-infected cells and was expressed as EC50 and EC90. These values represent the amount of the compound required to protect 50% and 90%, respectively, of the cells from the cytopathogenic effect of the virus. The toxicity of the compound was measured on the mock-infected cells and was expressed as CC50, which represents the concentration of compound required to inhibit the growth of the cells by 50%. The selectivity index (SI) (ratio CC50/EC50) is an indication of the selectivity of the anti-HIV activity of the inhibitor. Wherever results are reported as e.g. pEC50 or pCC50 values, the result is expressed as the negative logarithm of the result expressed as EC50 or CC50 respectively.
(§2) As a measure of the broad spectrum activity of the present compounds, the fold resistance (FR), defined as FR=EC50(mutant strain)/EC50(HIV-1 strain LAI), was determined.

[2] = system: HIV strain B (clinically isolated, protease mutations); assay type: cell-based; details: FR=EC50(mutant strain B)/EC50(HIV-1 strain LAI)
Description: as §1, §2

[3] = system: HIV strain A (clinically isolated, protease mutations); assay type: cell-based; details: FR=EC50(mutant strain A)/EC50(HIV-1 strain LAI)
Description: as §1, §2

[4] = system: HIV strain C (clinically isolated, protease mutations); assay type: cell-based; details: FR=EC50(mutant strain C)/EC50(HIV-1 strain LAI)
Description: as §1, §2

[5] = system: HIV strain D (clinically isolated, protease mutations); assay type: cell-based; details: FR=EC50(mutant strain D)/EC50(HIV-1 strain LAI)
Description: as §1, §2

[6] = system: HIV strain E (clinically isolated, protease mutations); assay type: cell-based; details: FR=EC50(mutant strain E)/EC50(HIV-1 strain LAI)
Description: as §1, §2

HIV-1 LAI = assay: Protein binding analyses: anti-HIV activity in presence of serum proteins; assay type: cell-based; details: MT4 cells
Description: Human serum proteins like albumin (HSA) or α-1 acid glycoprotein (AAG) are known to bind many drugs, resulting in a possible decrease in the effectiveness of those compounds. In order to determine whether the present compounds would be adversely affected by this binding, the anti-HIV activity of the compounds was measured in the presence of human serum, thus evaluating the effect of the binding of the protease inhibitors to those proteins.
MT4 cells are infected with HIV-1 LAI at a multiplicity of infection (MOI) of 0.001-0.01 CCID50 (50% cell culture infective dose per cell, CCID50). After 1 h incubation, cells are washed and plated into a 96 well plate containing serial dilutions of the compound in the presence of 10% FCS (foetal calf serum), 10% FCS+1 mg/ml AAG (α1-acid glycoprotein), 10% FCS+45 mg/ml HSA (human serum albumin) or 50% human serum (HS). After 5 or 6 days incubation, the EC50 (50% effective concentration in cell-based assays) is calculated by determining the cell viability or by quantifying the level of HIV replication. Cell viability is measured using the assay described above. Into a 96 well plate containing serial dilutions of the compound in the presence of 10% FCS or 10% FCS+1 mg/ml AAG, HIV (wild type or resistant strain) and MT4 cells are added to a final concentration of 200-250 CCID50/well and 30,000 cells/well, respectively. After 5 days of incubation (37° C., 5% CO2), the viability of the cells is determined by the tetrazolium colorimetric MTT (3-[4,5-Dimethylthiazol-2-yl]-2,5-diphenyltetrazolium bromide) method (Pauwels et al. J Virol. Methods 1988, 20, 309-321).

mock-infected MT4 cells = assay: in vitro
Description: as §1, §2

[7] = in vivo, ip, 20 mg/kg
Description: The compounds are formulated as a 20 mg/ml solution or suspension in DMSO, PEG400 or cyclodextin 40% in water. For most experiments in the rat (male and female rats), three dosing groups are formed: 1/single intraperitoneal (IP) dose at 20 mg/kg using the DMSO formulation; 2/single oral dose at 20 mg/kg using the PEG400 formulation and 3/single oral dose at 20 mg/kg using the cyclodextrin formulation. Blood is sampled at regular time intervals after dosing and drug concentrations in the serum are determined using a LC-MS bioanalytical method. Serum concentrations are expressed in […] after normalization to 10 mg/kg. Serum concentration at 30 minutes (30′) and at 3 hours (180′) can be determined as these values reflect the extent of absorption (30′) and the speed of elimination (180′). The rat serum concentration at 30 min and 180 min following IP administration of 20 mg/kg of compound 4 are 1098 ng/ml and 553 ng/ml respectively.

in vitro = details: human
Description: as §1, §2

With `CC(=O)Nc1nc2ccc(S(=O)(=O)N(CC(C)C)C[C@@H](O)[C@H](Cc3ccccc3)NC(=O)O[C@H]3CO[C@H]4OCC[C@H]43)cc2o1` [Compound 1] the “F (FR) fold resistance” value [1] was 0.71, the “B (FR) fold resistance” value [2] was 0.80 and the “A (FR) fold resistance” value [3] was 0.63. For the same compound, the “C (FR) fold resistance” value [4] was 0.50, the “D (FR) fold resistance” value [5] was 0.72 and the “E (FR) fold resistance” value [6] was 0.40. For the same compound, the “Ratio of the EC50 compared to FCS (10%)” value (HIV-1 LAI; AAG 1 mg/ml (10% FCS+AAG)) was 25, the “Ratio of the EC50 compared to FCS (10%)” value (HIV-1 LAI; FCS (10%)) was 1 and the “Ratio of the EC50 compared to FCS (10%)” value (HIV-1 LAI; HS 50% (human serum)) was 15. The “Ratio of the EC50 compared to FCS (10%)” value (HIV-1 LAI; HSA 45 mg/ml (10% FCS+HSA)) was 6 and the “Tox (pCC50)” value (mock-infected MT4 cells) was under 4.

With `CC(C)CN(C[C@@H](O)[C@H](Cc1ccccc1)NC(=O)O[C@H]1CO[C@H]2OCC[C@H]21)S(=O)(=O)c1ccc2nc(NCCN3CCCC3)oc2c1` [Compound 4] the “rat serum concentration at 30 min” value [7] was 1098 ng/mL, the “rat serum concentration at 180 min” value [7] was 553 ng/mL and the “F (FR) fold resistance” value [1] was 3.2. For the same compound, the “B (FR) fold resistance” value [2] was 1.62, the “A (FR) fold resistance” value [3] was 1.95 and the “C (FR) fold resistance” value [4] was 1.70. The “D (FR) fold resistance” value [5] was 0.47 and the “E (FR) fold resistance” value [6] was 0.50.

With `CC(C)CN(C[C@@H](O)[C@H](Cc1ccccc1)NC(=O)OCc1cncs1)S(=O)(=O)c1ccc2nc(NC(=O)c3ccncc3)oc2c1` [Compound 10] the “F (FR) fold resistance” value [1] was 20, the “B (FR) fold resistance” value [2] was 10.83 and the “A (FR) fold resistance” value [3] was 3.9. For the same compound, the “C (FR) fold resistance” value [4] was 1.1, the “D (FR) fold resistance” value [5] was 3.9 and the “E (FR) fold resistance” value [6] was 1.3. For the same compound, the CC50 at 5 days (in vitro) was 53.7 µM.

With `CC(C)CN(C[C@@H](O)[C@H](Cc1ccccc1)NC(=O)OCc1cncs1)S(=O)(=O)c1ccc2nc(N(C)C(=O)C3CCCN(C)C3)oc2c1` (stereo partly drawn) [Compound 27] the “F (FR) fold resistance” value [1] was 24, the “B (FR) fold resistance” value [2] was 1.00 and the “A (FR) fold resistance” value [3] was 4.4. The “C (FR) fold resistance” value [4] was 0.68, the “D (FR) fold resistance” value [5] was 2.9 and the “E (FR) fold resistance” value [6] was 0.85. The “Tox (pCC50)” value (mock-infected MT4 cells) was under 4.

In the case of `CC(C)CN(C[C@@H](O)[C@H](Cc1ccccc1)NC(=O)OCc1cncs1)S(=O)(=O)c1ccc2nc(N(C)C(=O)C3CCN(C)CC3)oc2c1` [Compound 28], the “F (FR) fold resistance” value [1] is reported as 23, the “B (FR) fold resistance” value [2] is reported as 0.89 and the “A (FR) fold resistance” value [3] is reported as 4.4. The “C (FR) fold resistance” value [4] was 0.51, the “D (FR) fold resistance” value [5] was 2.9 and the “E (FR) fold resistance” value [6] was 1.9. The “Tox (pCC50)” value (mock-infected MT4 cells) was under 4.

For `CC(C)CN(C[C@@H](O)[C@H](Cc1ccccc1)NC(=O)OCc1cncs1)S(=O)(=O)c1ccc2nc(N(C)C(=O)c3ccnc(Cl)c3)oc2c1` [Compound 29], the “F (FR) fold resistance” value [1] was 39, the “B (FR) fold resistance” value [2] was 1.4 and the “A (FR) fold resistance” value [3] was 8.1. The “C (FR) fold resistance” value [4] was 0.79, the “D (FR) fold resistance” value [5] was 4.9 and the “E (FR) fold resistance” value [6] was 0.87. For the same compound, the “Tox (pCC50)” value (mock-infected MT4 cells) was under 4.

In the case of `CC(C)CN(C[C@@H](O)[C@H](Cc1ccccc1)NC(=O)OCc1cncs1)S(=O)(=O)c1ccc2nc(NC(=O)C3CCCN3C)oc2c1` (stereo partly drawn) [Compound 34], the “F (FR) fold resistance” value [1] is reported as 25, the “B (FR) fold resistance” value [2] is reported as 1.4 and the “A (FR) fold resistance” value [3] is reported as 7.2. The “C (FR) fold resistance” value [4] was 1.7, the “D (FR) fold resistance” value [5] was 5.8 and the “E (FR) fold resistance” value [6] was 2.3. The “Tox (pCC50)” value (mock-infected MT4 cells) was 4.25.
